Where two headings read alike, the source gives them in different places.
Key:
human Gal-3 (hGal-3) = human Gal-3 (hGal-3) (Homo sapiens (Human), UniProt P17931); assay: competitive binding assay: biotinylated hGal-3 binding to microplate-adsorbed asialofetuin (ASF)
Method in brief: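 Competition of compounds with biotinylated human Gal-3 for asialofetuin-coated plates, 3 hours at 4° C. Bound Gal-3 detected with streptavidin-peroxidase (80 ng/mL, 1 hour, 4° C) and ABTS substrate. IC50 reported as the mean of several measurements.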

human Gal-1 (hGal-1) = human Gal-1 (hGal-1) (Homo sapiens (Human), UniProt P09382); assay: competitive binding assay: biotinylated hGal-1 binding to microplate-adsorbed asialofetuin (ASF); settings: Table 15; read-out: IC50 (Galectin-1 inhibition)
Method in brief: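 Biotinylated human Gal-1 (300-1000 ng/mL) competes with serially diluted compound for binding to ASF-coated plates, 3 h at 4° C. Bound protein detected with streptavidin-peroxidase and ABTS substrate (spectrophotometric). IC50 given as mean of several measurements.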

[1] = Gal-3 inhibition, binding of biotinylated hGal-3 to ASF, mean values, read-out: IC50
[2] = Table 14, read-out: IC50 (Gal-3 inhibition)

Chain of human Gal-1 (hGal-1) (P09382 whole entry): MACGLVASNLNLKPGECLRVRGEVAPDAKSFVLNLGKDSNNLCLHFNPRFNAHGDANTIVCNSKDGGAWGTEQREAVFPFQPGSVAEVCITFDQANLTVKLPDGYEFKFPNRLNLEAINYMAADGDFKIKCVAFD
Chain of human Gal-3 (hGal-3) (P17931 whole entry): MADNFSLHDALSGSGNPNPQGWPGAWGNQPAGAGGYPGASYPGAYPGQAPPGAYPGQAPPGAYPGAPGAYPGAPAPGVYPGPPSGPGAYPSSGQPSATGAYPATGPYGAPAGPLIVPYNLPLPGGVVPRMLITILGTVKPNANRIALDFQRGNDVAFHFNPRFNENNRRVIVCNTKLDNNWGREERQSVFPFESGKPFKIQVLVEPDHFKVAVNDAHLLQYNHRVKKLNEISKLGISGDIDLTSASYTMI

Cc1c(F)cc(-c2cn([C@H]3[C@@H](O)[C@@H](CO)O[C@@H](S[C@@H](c4ccccc4C(F)(F)F)C(C)(C)O)[C@@H]3O)nn2)cc1F [Example 3.31.112S., (2S,3R,4S,5R,6R)-4-(4-(3,5-Difluoro-4-methylphenyl)-1H-1,2,3-triazol-1-yl)-2-(((S)-2-hydroxy-2-methyl-1-(2-(trifluoromethyl)phenyl)propyl)thio)-6-(hydroxymethyl)tetrahydro-2H-pyran-3,5-diol]
IC50 (human Gal-3 (hGal-3); [1]): 4.85 µM
IC50 (human Gal-1 (hGal-1)): 54.2 µM

CO[C@@H]1[C@@H](n2cc(-c3cc(F)c(C)c(F)c3)nn2)[C@@H](O)[C@@H](CO)O[C@H]1S[C@H](c1ncccc1C)C1(O)CCC(F)(F)CC1 [Example 3.44.126R.I., (2R,3R,4S,5R,6S)-6-(((R)-(4,4-Difluoro-1-hydroxycyclohexyl)(3-methylpyridin-2-yl)methyl)thio)-4-(4-(3,5-difluoro-4-methylphenyl)-1H-1,2,3-triazol-1-yl)-2-(hydroxymethyl)-5-methoxytetrahydro-2H-pyran-3-ol]
IC50 (human Gal-3 (hGal-3); [2]): 0.04 µM
IC50 (human Gal-1 (hGal-1)): 2.43 µM

CO[C@@H]1[C@@H](n2cc(-c3cc(F)c(C)c(F)c3)nn2)[C@@H](O)[C@@H](CO)O[C@H]1S[C@@H](c1ncccc1C)C1(O)CCC(F)(F)CC1 [Example 3.44.126S.I., (2R,3R,4S,5R,6S)-6-(((S)-(4,4-Difluoro-1-hydroxycyclohexyl)(3-methylpyridin-2-yl)methyl)thio)-4-(4-(3,5-difluoro-4-methylphenyl)-1H-1,2,3-triazol-1-yl)-2-(hydroxymethyl)-5-methoxytetrahydro-2H-pyran-3-ol]
IC50 (human Gal-3 (hGal-3); [2]): 1.16 µM
IC50 (human Gal-1 (hGal-1)): 20 µM

CC(C)(O)C(S[C@@H]1O[C@H](CO)[C@H](O)[C@H](n2cc(-c3ccc4ccccc4c3)nn2)[C@H]1O)c1ccccc1C(F)(F)F (stereo partly drawn) [Example 4.31.112, (2S,3R,4S,5R,6R)-2-((2-Hydroxy-2-methyl-1-(2-(trifluoromethyl)phenyl)propyl)thio)-6-(hydroxymethyl)-4-(4-(naphthalen-2-yl)-1H-1,2,3-triazol-1-yl)tetrahydro-2H-pyran-3,5-diol]
IC50 (human Gal-3 (hGal-3); [1]): 2.24 µM
IC50 (human Gal-1 (hGal-1)): 2.27 µM

CC(C)(O)C(S[C@@H]1O[C@H](CO)[C@H](O)[C@H](n2cc(-c3ccc(C#N)c(F)c3)nn2)[C@H]1O)c1ccccc1C(F)(F)F (stereo partly drawn) [Example 5.31.112., 4-(1-((2S,3R,4S,5R,6R)-3,5-Dihydroxy-2-((2-hydroxy-2-methyl-1-(2-(trifluoromethyl)phenyl)propyl)thio)-6-(hydroxymethyl)tetrahydro-2H-pyran-4-yl)-1H-1,2,3-triazol-4-yl)-2-fluorobenzonitrile]
IC50 (human Gal-3 (hGal-3); [1]): 1.5 µM
IC50 (human Gal-1 (hGal-1)): 3.58 µM

CO[C@@H]1[C@@H](n2cc(-c3cc(F)c(Cl)c(F)c3)nn2)[C@@H](O)[C@@H](CO)O[C@H]1SC(c1ncccc1C)C1(O)CCC(F)(F)CC1 (stereo partly drawn) [Example 11.44.126.I., (2R,3R,4S,5R,6S)-4-(4-(4-Chloro-3,5-difluorophenyl)-1H-1,2,3-triazol-1-yl)-6-(((4,4-difluoro-1-hydroxycyclohexyl)(3-methylpyridin-2-yl)methyl)thio)-2-(hydroxymethyl)-5-methoxytetrahydro-2H-pyran-3-ol]
IC50 (human Gal-3 (hGal-3); [2]): 0.09 µM
IC50 (human Gal-1 (hGal-1)): 2.43 µM

CO[C@@H]1[C@@H](n2cc(-c3ccc(Br)c(F)c3)nn2)[C@@H](O)[C@@H](CO)O[C@H]1SC(c1ncccc1C)C1(O)CCC(F)(F)CC1 (stereo partly drawn) [Example 12.44.126.I., (2R,3R,4S,5R,6S)-4-(4-(4-Bromo-3-fluorophenyl)-1H-1,2,3-triazol-1-yl)-6-(((4,4-difluoro-1-hydroxycyclohexyl)(3-methylpyridin-2-yl)methyl)thio)-2-(hydroxymethyl)-5-methoxytetrahydro-2H-pyran-3-ol]
IC50 (human Gal-3 (hGal-3); [2]): 0.19 µM
IC50 (human Gal-1 (hGal-1)): 3.24 µM

CO[C@@H]1[C@@H](n2cc(-c3ccc(F)c(F)c3)nn2)[C@@H](O)[C@@H](CO)O[C@H]1SC(c1ncccc1C)C1(O)CCC(F)(F)CC1 (stereo partly drawn) [Example 16.44.126.I., (2R,3R,4S,5R,6S)-6-(((4,4-Difluoro-1-hydroxycyclohexyl)(3-methylpyridin-2-yl)methyl)thio)-4-(4-(3,4-difluorophenyl)-1H-1,2,3-triazol-1-yl)-2-(hydroxymethyl)-5-methoxytetrahydro-2H-pyran-3-ol]
IC50 (human Gal-3 (hGal-3); [2]): 0.09 µM
IC50 (human Gal-1 (hGal-1)): 0.73 µM

CO[C@@H]1[C@@H](n2cc(-c3ccc(F)c(F)c3)nn2)[C@@H](O)[C@@H](CO)O[C@H]1S[C@H](c1ncccc1C)C1(O)CCC(F)(F)CC1 [Example 16.44.126R.I., (2R,3R,4S,5R,6S)-6-(((R)-(4,4-Difluoro-1-hydroxycyclohexyl)(3-methylpyridin-2-yl)methyl)thio)-4-(4-(3,4-difluorophenyl)-1H-1,2,3-triazol-1-yl)-2-(hydroxymethyl)-5-methoxytetrahydro-2H-pyran-3-ol]
IC50 (human Gal-3 (hGal-3); [2]): 0.08 µM
IC50 (human Gal-1 (hGal-1)): 0.57 µM

CO[C@@H]1[C@@H](n2cc(-c3ccc(F)c(F)c3)nn2)[C@@H](O)[C@@H](CO)O[C@H]1S[C@@H](c1ncccc1C)C1(O)CCC(F)(F)CC1 [Example 16.44.126S.I., (2R,3R,4S,5R,6S)-6-(((S)-(4,4-Difluoro-1-hydroxycyclohexyl)(3-methylpyridin-2-yl)methyl)thio)-4-(4-(3,4-difluorophenyl)-1H-1,2,3-triazol-1-yl)-2-(hydroxymethyl)-5-methoxytetrahydro-2H-pyran-3-ol]
IC50 (human Gal-3 (hGal-3); [2]): 1.87 µM
IC50 (human Gal-1 (hGal-1)): 54.2 µM

CO[C@@H]1[C@@H](n2cc(-c3cc(F)c(Cl)c(Cl)c3)nn2)[C@@H](O)[C@@H](CO)O[C@H]1SC(c1ncccc1C)C1(O)CCC(F)(F)CC1 (stereo partly drawn) [Example 17.44.126.I., (2R,3R,4S,5R,6S)-4-(4-(3,4-Dichloro-5-fluorophenyl)-1H-1,2,3-triazol-1-yl)-6-(((4,4-difluoro-1-hydroxycyclohexyl)(3-methylpyridin-2-yl)methyl)thio)-2-(hydroxymethyl)-5-methoxytetrahydro-2H-pyran-3-ol]
IC50 (human Gal-3 (hGal-3); [2]): 0.14 µM
IC50 (human Gal-1 (hGal-1)): 1.68 µM

CO[C@@H]1[C@@H](n2cc(-c3cc(F)c(Br)c(F)c3)nn2)[C@@H](O)[C@@H](CO)O[C@H]1SC(c1ncccc1C)C1(O)CCC(F)(F)CC1 (stereo partly drawn) [Example 18.44.126.I., (2R,3R,4S,5R,6S)-4-(4-(4-Bromo-3,5-difluorophenyl)-1H-1,2,3-triazol-1-yl)-6-(((4,4-difluoro-1-hydroxycyclohexyl)(3-methylpyridin-2-yl)methyl)thio)-2-(hydroxymethyl)-5-methoxytetrahydro-2H-pyran-3-ol]
IC50 (human Gal-3 (hGal-3); [2]): 0.12 µM
IC50 (human Gal-1 (hGal-1)): 3.47 µM

CO[C@@H]1[C@@H](n2cc(-c3ccc(Cl)c(F)c3F)nn2)[C@@H](O)[C@@H](CO)O[C@H]1SC(c1ncccc1C)C1(O)CCC(F)(F)CC1 (stereo partly drawn) [Example 22.44.126.I., (2R,3R,4S,5R,6S)-4-(4-(4-Chloro-2,3-difluorophenyl)-1H-1,2,3-triazol-1-yl)-6-(((4,4-difluoro-1-hydroxycyclohexyl)(3-methylpyridin-2-yl)methyl)thio)-2-(hydroxymethyl)-5-methoxytetrahydro-2H-pyran-3-ol]
IC50 (human Gal-3 (hGal-3); [2]): 0.07 µM
IC50 (human Gal-1 (hGal-1)): 0.92 µM

CO[C@@H]1[C@@H](n2cc(-c3ccc(C)c(F)c3F)nn2)[C@@H](O)[C@@H](CO)O[C@H]1SC(c1ncccc1C)C1(O)CCC(F)(F)CC1 (stereo partly drawn) [Example 23.44.126.I., (2R,3R,4S,5R,6S)-6-(((4,4-Difluoro-1-hydroxycyclohexyl)(3-methylpyridin-2-yl)methyl)thio)-4-(4-(2,3-difluoro-4-methylphenyl)-1H-1,2,3-triazol-1-yl)-2-(hydroxymethyl)-5-methoxytetrahydro-2H-pyran-3-ol]
IC50 (human Gal-3 (hGal-3); [2]): 0.05 µM
IC50 (human Gal-1 (hGal-1)): 0.55 µM
